Source: US20220267801A1, “ELIMINATION OF PROLIFERATING CELLS FROM STEM CELL-DERIVED GRAFTS” (Research Development Foundation, priority 2016, published 2022)
“Also recorded” adds a separate entry of the source.

What was measured:
[1] = system: TK-PSC (HS415 pluripotent stem cells expressing HSV-TK under Ki67 promoter); experiment: Calcein cell viability assay, ganciclovir on TK-PSC; format: cell-based, human
Procedure: (§1) The impact of ganciclovir on TK cells was determined in vitro (FIG. 2B, 2C, 2D). TK PSCs were highly sensitive to ganciclovir exposure (96 h) and even at ganciclovir concentrations of 2.5 μM loss of cells was observed, which was almost complete at 10 μM (FIG. 2B, 2C). In contrast, regular PSCs (i.e., not transduced with the TK construct) were resistant to ganciclovir even at concentrations of 40 μM (FIG. 2B, 2F). As expected from the lack of TK expression in TK neurons, TK neurons were not affected by ganciclovir concentrations up to 40 μM, similar to the control neurons.
(§2) The time course of the ganciclovir effect was also investigated (FIG. 2D). TK PSCs were killed by Ganciclovir (40 μM) within 4 days. TK-NPCs after 1 week of neurosphere differentiation were still sensitive to Ganciclovir (40 μM), however the time course of killing was markedly slowed down and complete killing was observed only after 8 days.
(§3) Cell proliferation measurement by calcein assay: Cells were plated onto a 96 wells pre-coated with polyornothine+ECM (1/50). Respectively 1000 cells for pluripotent stem cells, 5000 cells for early NPC and 30000 cells for late NPC. Ganciclovir (Cemevene diluted in PBS, Roche) treatment was added the day after cell plating for PSC, 3 days later for early NPC and one week later for late NPC. Calcein (2 μM) was added for different time course of ganciclovir treatment (24 H to 96 H). Cell survival was measured by calcein integration after 24 h of incubation in a 37° C. incubator.

[2] = system: regular PSCs (not transduced with the TK construct); experiment: Calcein cell viability assay, ganciclovir on control PSC; format: cell-based, human; details: concentrations up to 40 μM
Procedure: as §1, §3

[3] = system: TK neurons; experiment: Calcein cell viability assay, ganciclovir on TK-neurons; format: cell-based, human; details: concentrations up to 40 μM
Procedure: as §1
(§4) Generation of NPC in two dimensional culture (2D): For differentiation in 2D, 3-week old neurospheres were dissociated with ACCUMAX® (Millipore) and replated on polyornithine- (15 μg/mL; Sigma) and laminin- (2 μg/cm^2; R&D System) coated cover slips (diameter=0.8cm) in 24-well plates at 200,000 cells/cm^2 in maturation medium for 1 week before analysis by immunofluorescence staining (FIG. 1B).
(§5) Cell proliferation measurement by calcein assay: Cells were plated onto a 96 wells pre-coated with polyornothine+ECM (1/50). Respectively 1000 cells for pluripotent stem cells, 5000 cells for early NPC and 30000 cells for late NPC. […] Cell survival was measured by calcein integration after 24 h of incubation in a 37° C. incubator.

[4] = system: control neurons; experiment: Calcein cell viability assay, ganciclovir on control neurons; format: cell-based, human; details: concentrations up to 40 μM
Procedure: as §1, §4, §5

[5] = system: TK-NPCs (neurosphere-derived neural precursor cells); experiment: Calcein cell viability assay, ganciclovir time course on TK-NPC; format: cell-based, human; details: 40 μM ganciclovir
Procedure: as §2
Generation of neurospheres containing DA neuropecursors: NPC were generated as neurospheres to contain DA progenitors as described previously (Tieng et al., 2014). Briefly, neural midbrain orientation is performed during the first week followed by 2 additional weeks of maturation to obtain 1 week or 2 or 3 week-old NPC (FIGS. 1B, 3A).
as §3

[6] = system: teratoma from transplanted TK-PSC; experiment: TK-PSC transplantation into striatum of NOD/SCID mice, ganciclovir treatment, teratoma formation; format: in vivo
Procedure: (§6) FIGS. 3A-3C: Schedule of cell transplantation and ganciclovir treatment. Different transplantation and ganciclovir treatment protocols were used. (A) Schematic representation of the differentiation protocol towards DA neurons. Pluripotent stem cells were cultured as neurospheres for 1 week for midbrain orientation phase, followed by a 2 or 3 week-maturation phase. (B) Transplantation of undifferentiated pluripotent stem cells with early or late ganciclovir treatment. Early treatment: undifferentiated pluripotent stem cells were transplanted and ganciclovir (or PBS control) was applied by daily intra-peritoneal injection from day 4 to day 19 post-transplantation. Late treatment: undifferentiated pluripotent stem cells were transplanted and ganciclovir (or PBS control) was applied by daily intra-peritoneal injection from day 30 to day 45 post-transplantation. (C) Transplantation of 2 or 3 week NPC: NPC containing- neurospheres were dissociated and transplanted into mice striatum. Ganciclovir (or PBS control) treatment was given from day 4 to day 19 post-transplantation. For all protocols, animals were sacrificed 1 month after termination of ganciclovir treatment.
Early, but not late ganciclovir treatment prevents tumor formation upon transplantation of highly proliferative pluripotent stem cells: Given the encouraging results in vitro, it was investigated whether ganciclovir could prevent tumor formation in vivo. For this purpose TK-PSC were transplanted into the striatum of NOD/SCID mice. […] There was a moderate amount of mouse microglia invasion.
It was next investigated whether ganciclovir could also be used to treat already established teratomas. […] Mice were sacrificed 30 days after the end of the ganciclovir treatment.
(§7) Stereotaxic engraftment and ganciclovir treatment: Undifferentiated pluripotent stem cells (20000 cells/ μL) and dissociated neurospheres (100.000 cells/μL) were injected in the striatum of anesthetized mice using a 27-G Hamilton syringe. Injection coordinates for lateral striatum were: bregma=0.74 mm, mediolateral=2.25 mm, dorsoventral=3.5 mm; for medial striatum: bregma=0.74 mm, mediolateral=1.4 mm, dorsoventral=2.8 mm. Mice were euthanized one month later after ganciclovir termination.
Morphological and Phenotypic Analysis of Injected Surviving Cells: Anesthetized mice were fixed by intracardiac perfusion of 4% paraformaldehyde in phosphate-buffered saline. Immunohistochemical detection was performed on 10-μm thick free-floating cryostat sections using Alexa 488®-, or 555-labeled secondary antibodies or the biotin—avidin—peroxidase complex method (Vector). The following primary antibodies were used: Nestin (rabbit polyclonal anti-human, from Chemicon, 1/400), β3-tubulin (mouse monoclonal from Sigma or rabbit polyclonal from Covance, 1/2000), Neuronal Nuclei-specific protein (NeuN, mouse monoclonal from Chemicon, 1/1000), Glial Fibrillary Acidic Protein (GFAP, rabbit polyclonal from Dako, 1/2000), Proliferating Cell Nuclear Antigen (PCNA, mouse monoclonal from Dako, 1/100), Tyrosin Hydroxylase (TH, rabbit polyclonal from millipore, 1/500), iba 1 (polyclonal rabbit from Wako, 1/500), HSV-TK (mouse monoclonal, Gentaur, 1/100), ki67 (monoclonal rabbit, Abcam, 1/100 or mouse, Chemicon, 1/100).

[7] = system: transplanted TK-NPC graft; experiment: Transplantation of 2-3 week NPC neurospheres into mouse striatum, ganciclovir treatment; format: in vivo, mice
Procedure: as §6
Transplantation of TK-NPCs produced mature neurons which were not sensitive to ganciclovir treatment: The in vivo results, shown so far, were obtained with transplantation of undifferentiated pluripotent stem cells. However, the final goal of neuronal cell therapy is the transplantation of neural precursor cells, which should differentiate into mature neurons and be resistant to ganciclovir treatment. Therefore, 2-3 weeks-NPC containing neurospheres were transplanted (FIGS. 3C, 8). Under these conditions, no tumor formation was observed, even in the absence of ganciclovir treatment (FIG. 8A). In line with these observations, the transplanted cells (assessed by immunofluorescence 7 weeks after transplantation) were abundantly positive for beta 3 tubulin (FIG. 8B, upper panel), while a smaller fraction of cells was TH-positive (FIG. 8B, lower panel). Occasionally nestin-positive cells were observed.
Markers of cellular proliferation were analyzed by staining of the transplants with antibodies against PCNA and Ki67 (FIG. 8C). […] To verify whether the PCNA-positive, Ki67-negative cells were proliferating cells, BrdU experiments were performed.
as §7, with “Mice were euthanized one month later after ganciclovir termination.” left out

[8] = early treatment, one month after termination of treatment

SMILES: Nc1nc(O)c2ncn(COC(CO)CO)c2n1 [ganciclovir]
- time to killing of TK PSCs ([1]; 40 μM ganciclovir): ≤ 4 days
- ganciclovir concentration at which loss of cells was almost complete ([1]; TK PSCs, 96 h exposure): 10 µM
- ganciclovir concentration at which loss of cells was observed ([1]; TK PSCs, 96 h exposure): 2.5 µM
- sensitivity of regular (control) PSCs to ganciclovir [2]: resistant; also recorded: no ganciclovir toxicity is observed
- effect of ganciclovir on TK neurons [3]: not affected; also recorded: lose their sensitivity
- effect of ganciclovir on control neurons [4]: not affected
- time to complete killing of TK-NPCs ([5]; TK-NPCs after 1 week of neurosphere differentiation): 8 days
- killing of TK-NPCs ([5]; TK-NPCs after 2 weeks of neurosphere differentiation): not killed
- tumor development (graft surface) ([6]; early ganciclovir treatment): completely prevented
- Ki67 and TK expression in the graft region [6, 8]: virtually no Ki67 and TK expression
- human cells (HCM) remaining in the graft [6, 8]: hardly any human cells left; also recorded: barely detectable
- teratoma formation ([6]; early treatment: 15 days, starting 4 days post-transplantation, daily i.p.): no observed teratomas; also recorded: absence of teratoma formation
- tumor size (graft surface) ([6]; late ganciclovir treatment): did not have any effect
- teratoma formation ([6]; late treatment: days 30-45 post-transplantation, sacrifice 30 days after end of treatment): teratoma formation; also recorded: no difference
- size of transplants (graft surface) ([7]; NPC from 2-3 weeks old neurospheres, early ganciclovir treatment): not affected
- proliferation marker pattern of transplants (PCNA positive, Ki67 low to absent) ([7]; ganciclovir vs control): did not alter this pattern
- neural markers of transplanted cells (beta 3 tubulin, TH, nestin) ([7]; immunofluorescence 7 weeks after transplantation): None of these markers were affected
- graft development, ganciclovir vs PBS ([7]; sacrifice 4 weeks after termination of treatment): No difference
